Data from PubChem BioAssay (NCI).
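Following 48 hours of exposure in 96-well plates, responses at five concentrations were used to interpolate endpoints linearly. The concentration for 50% growth inhibition is given as GI50. TGI is the concentration that stops growth completely.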

Assays:
Assay in all cases: growth of human tumour cells (NCI), 48 h
SF-268 CNS = tested on: SF-268 CNS
M14 melanoma = tested on: M14 melanoma
HS 578T breast = tested on: HS 578T breast
SN12C renal = tested on: SN12C renal
BT-549 breast = tested on: BT-549 breast
RXF 393 renal = tested on: RXF 393 renal
IGROV1 ovarian = tested on: IGROV1 ovarian
EKVX NSCLC = tested on: EKVX NSCLC
SK-MEL-2 melanoma = tested on: SK-MEL-2 melanoma
NCI-H460 lung = tested on: NCI-H460 lung
TK-10 renal = tested on: TK-10 renal
OVCAR-4 ovarian = tested on: OVCAR-4 ovarian
786-0 renal = tested on: 786-0 renal
CCRF-CEM leukemia = tested on: CCRF-CEM leukemia
DU-145 prostate = tested on: DU-145 prostate
SNB-75 CNS = tested on: SNB-75 CNS
A498 renal = tested on: A498 renal
KM12 colon = tested on: KM12 colon
U251 CNS = tested on: U251 CNS
HCC-2998 colon = tested on: HCC-2998 colon
HOP-62 NSCLC = tested on: HOP-62 NSCLC
OVCAR-8 ovarian = tested on: OVCAR-8 ovarian
MCF7 breast = tested on: MCF7 breast
HCT-15 colon = tested on: HCT-15 colon
T-47D breast = tested on: T-47D breast
HCT-116 colon = tested on: HCT-116 colon
SK-MEL-5 melanoma = tested on: SK-MEL-5 melanoma
A549 NSCLC = tested on: A549 NSCLC
SF-295 CNS = tested on: SF-295 CNS
SK-MEL-28 melanoma = tested on: SK-MEL-28 melanoma
HOP-92 NSCLC = tested on: HOP-92 NSCLC
SNB-19 CNS = tested on: SNB-19 CNS
NCI-H23 lung = tested on: NCI-H23 lung
RPMI-8226 leukemia = tested on: RPMI-8226 leukemia
SF-539 CNS = tested on: SF-539 CNS
OVCAR-5 ovarian = tested on: OVCAR-5 ovarian
MOLT-4 leukemia = tested on: MOLT-4 leukemia
ACHN renal = tested on: ACHN renal
HT29 colon = tested on: HT29 colon
UACC-257 melanoma = tested on: UACC-257 melanoma
COLO 205 colon = tested on: COLO 205 colon
K-562 leukemia = tested on: K-562 leukemia
MDA-MB-231 breast = tested on: MDA-MB-231 breast
OVCAR-3 ovarian = tested on: OVCAR-3 ovarian
NCI/ADR-RES ovarian = tested on: NCI/ADR-RES ovarian
NCI-H226 lung = tested on: NCI-H226 lung
SW-620 colon = tested on: SW-620 colon
NCI-H522 lung = tested on: NCI-H522 lung
PC-3 prostate = tested on: PC-3 prostate
UACC-62 melanoma = tested on: UACC-62 melanoma
CAKI-1 renal = tested on: CAKI-1 renal
UO-31 renal = tested on: UO-31 renal
MDA-MB-435 = tested on: MDA-MB-435
LOX IMVI melanoma = tested on: LOX IMVI melanoma

SMILES: O=C(O)c1cn(C2CC2)c2cc(N3CCN(C(=O)N(c4ccccc4)c4nc(-c5ccccc5)cs4)CC3)c(F)cc2c1=O
- GI50 (SF-268 CNS): 0.389 µM
- TGI (SF-268 CNS): > 100 µM
- GI50 (M14 melanoma): 0.437 µM
- TGI (M14 melanoma): > 100 µM
- GI50 (HS 578T breast): 0.393 µM
- TGI (HS 578T breast): > 100 µM
- GI50 (SN12C renal): 0.308 µM
- TGI (SN12C renal): > 100 µM
- GI50 (BT-549 breast): 0.349 µM
- TGI (BT-549 breast): 6.81 µM
- GI50 (RXF 393 renal): 272 nM
- TGI (RXF 393 renal): 1.49 µM
- GI50 (IGROV1 ovarian): 0.393 µM
- TGI (IGROV1 ovarian): > 100 µM
- GI50 (EKVX NSCLC): 0.397 µM
- TGI (EKVX NSCLC): > 100 µM
- GI50 (SK-MEL-2 melanoma): 0.554 µM
- TGI (SK-MEL-2 melanoma): 2.92 µM
- GI50 (NCI-H460 lung): 0.296 µM
- TGI (NCI-H460 lung): > 100 µM
- GI50 (TK-10 renal): 1.09 µM
- TGI (TK-10 renal): 32.6 µM
- GI50 (OVCAR-4 ovarian): 0.526 µM
- TGI (OVCAR-4 ovarian): > 100 µM
- GI50 (786-0 renal): 0.417 µM
- TGI (786-0 renal): > 100 µM
- GI50 (CCRF-CEM leukemia): 0.276 µM
- TGI (CCRF-CEM leukemia): > 100 µM
- GI50 (DU-145 prostate): 0.521 µM
- TGI (DU-145 prostate): > 100 µM
- GI50 (SNB-75 CNS): 0.334 µM
- TGI (SNB-75 CNS): 2800 nM
- GI50 (A498 renal): 0.028 µM
- TGI (A498 renal): 0.688 µM
- GI50 (KM12 colon): 0.369 µM
- TGI (KM12 colon): > 100 µM
- GI50 (U251 CNS): 0.381 µM
- TGI (U251 CNS): > 100 µM
- GI50 (HCC-2998 colon): 0.595 µM
- TGI (HCC-2998 colon): > 100 µM
- GI50 (HOP-62 NSCLC): 0.462 µM
- TGI (HOP-62 NSCLC): > 45.4 µM
- GI50 (OVCAR-8 ovarian): 0.378 µM
- TGI (OVCAR-8 ovarian): > 100 µM
- GI50 (MCF7 breast): 0.358 µM
- TGI (MCF7 breast): > 100 µM
- GI50 (HCT-15 colon): 0.308 µM
- TGI (HCT-15 colon): > 100 µM
- GI50 (T-47D breast): 2.3 µM
- TGI (T-47D breast): > 100 µM
- GI50 (HCT-116 colon): 0.351 µM
- TGI (HCT-116 colon): > 100 µM
- GI50 (SK-MEL-5 melanoma): 0.717 µM
- TGI (SK-MEL-5 melanoma): > 100 µM
- GI50 (A549 NSCLC): 0.3 µM
- TGI (A549 NSCLC): > 100 µM
- GI50 (SF-295 CNS): 0.305 µM
- TGI (SF-295 CNS): 3.04 µM
- GI50 (SK-MEL-28 melanoma): 0.687 µM
- TGI (SK-MEL-28 melanoma): > 100 µM
- GI50 (HOP-92 NSCLC): 0.241 µM
- TGI (HOP-92 NSCLC): 0.948 µM
- GI50 (SNB-19 CNS): 416 nM
- TGI (SNB-19 CNS): > 100 µM

SMILES: O=C1NC(=O)N(S(=O)(=O)c2cc(C(=O)Nc3ccc(Cl)cc3)c(Cl)cc2S)S(=O)(=O)N1
- GI50 (NCI-H23 lung): 18.5 µM
- TGI (NCI-H23 lung): 34.3 µM
- GI50 (RPMI-8226 leukemia): 17.7 µM
- TGI (RPMI-8226 leukemia): 55.7 µM
- GI50 (SF-268 CNS): 16.9 µM
- TGI (SF-268 CNS): 46.6 µM
- GI50 (M14 melanoma): 16.2 µM
- TGI (M14 melanoma): 31.6 µM
- GI50 (HS 578T breast): 21.1 µM
- TGI (HS 578T breast): 55.4 µM
- GI50 (SN12C renal): 21.9 µM
- TGI (SN12C renal): 50.2 µM
- GI50 (BT-549 breast): 20.5 µM
- TGI (BT-549 breast): 45.7 µM
- GI50 (SF-539 CNS): 19.7 µM
- TGI (SF-539 CNS): 39.3 µM
- GI50 (RXF 393 renal): 670 nM
- TGI (RXF 393 renal): 18.2 µM
- GI50 (IGROV1 ovarian): 24.1 µM
- TGI (IGROV1 ovarian): 51.6 µM
- GI50 (EKVX NSCLC): 18.3 µM
- TGI (EKVX NSCLC): 38.9 µM
- GI50 (SK-MEL-2 melanoma): 27.7 µM
- TGI (SK-MEL-2 melanoma): 66.1 µM
- GI50 (NCI-H460 lung): 16.3 µM
- TGI (NCI-H460 lung): 40.3 µM
- GI50 (OVCAR-5 ovarian): 19.4 µM
- TGI (OVCAR-5 ovarian): 35.3 µM
- GI50 (TK-10 renal): 23.8 µM
- TGI (TK-10 renal): 45.5 µM
- GI50 (MOLT-4 leukemia): 19.4 µM
- TGI (MOLT-4 leukemia): 47.6 µM
- GI50 (ACHN renal): 21.6 µM
- TGI (ACHN renal): 43.7 µM
- GI50 (HT29 colon): 23.8 µM
- TGI (HT29 colon): > 100 µM
- GI50 (OVCAR-4 ovarian): 24.2 µM
- TGI (OVCAR-4 ovarian): > 100 µM
- GI50 (UACC-257 melanoma): 17.5 µM
- TGI (UACC-257 melanoma): 37.1 µM
- GI50 (786-0 renal): 17.9 µM
- TGI (786-0 renal): 33.7 µM
- GI50 (CCRF-CEM leukemia): 8.53 µM
- TGI (CCRF-CEM leukemia): 26.9 µM
- GI50 (DU-145 prostate): 16.5 µM
- TGI (DU-145 prostate): 31.2 µM
- GI50 (COLO 205 colon): 11 µM
- TGI (COLO 205 colon): > 100 µM
- GI50 (SNB-75 CNS): 38.9 µM
- TGI (SNB-75 CNS): > 100000 nM
- GI50 (A498 renal): 15.5 µM
- TGI (A498 renal): 30.1 µM
- GI50 (K-562 leukemia): 12.3 µM
- TGI (K-562 leukemia): 34.1 µM
- GI50 (KM12 colon): 18.6 µM
- TGI (KM12 colon): 34.8 µM
- GI50 (U251 CNS): 15.1 µM
- TGI (U251 CNS): 34.3 µM
- GI50 (MDA-MB-231 breast): 25.2 µM
- TGI (MDA-MB-231 breast): 74.5 µM
- GI50 (OVCAR-3 ovarian): 19.2 µM
- TGI (OVCAR-3 ovarian): 36.1 µM
- GI50 (NCI/ADR-RES ovarian): 28.1 µM
- TGI (NCI/ADR-RES ovarian): 85.6 µM
- GI50 (NCI-H226 lung): 22.2 µM
- TGI (NCI-H226 lung): 56.1 µM
- GI50 (HCC-2998 colon): 12.9 µM
- TGI (HCC-2998 colon): 30 µM
- GI50 (SW-620 colon): 20.4 µM
- TGI (SW-620 colon): 44.5 µM
- GI50 (NCI-H522 lung): 21.1 µM
- TGI (NCI-H522 lung): 50.6 µM
- GI50 (PC-3 prostate): 17.8 µM
- TGI (PC-3 prostate): 52 µM
- GI50 (HOP-62 NSCLC): 18.3 µM
- TGI (HOP-62 NSCLC): 37.4 µM
- GI50 (OVCAR-8 ovarian): 24.8 µM
- TGI (OVCAR-8 ovarian): 64.4 µM
- GI50 (MCF7 breast): 23.6 µM
- TGI (MCF7 breast): 91.8 µM
- GI50 (HCT-15 colon): 18.9 µM
- TGI (HCT-15 colon): 36.5 µM
- GI50 (UACC-62 melanoma): 6.67 µM
- TGI (UACC-62 melanoma): 23.6 µM
- GI50 (CAKI-1 renal): 19 µM
- TGI (CAKI-1 renal): 35.4 µM
- GI50 (T-47D breast): 6.65 µM
- TGI (T-47D breast): 55.7 µM
- GI50 (UO-31 renal): 19.6 µM
- TGI (UO-31 renal): 46.5 µM
- GI50 (HCT-116 colon): 19.4 µM
- TGI (HCT-116 colon): 35.4 µM
- GI50 (MDA-MB-435): 18.5 µM
- TGI (MDA-MB-435): 34.3 µM
- GI50 (SK-MEL-5 melanoma): 13.1 µM
- TGI (SK-MEL-5 melanoma): 28.5 µM
- GI50 (A549 NSCLC): 25.1 µM
- TGI (A549 NSCLC): 55.6 µM
- GI50 (LOX IMVI melanoma): 17 µM
- TGI (LOX IMVI melanoma): 34.3 µM
- GI50 (SF-295 CNS): 23.4 µM
- TGI (SF-295 CNS): 43.1 µM
- GI50 (SK-MEL-28 melanoma): 14.6 µM
- TGI (SK-MEL-28 melanoma): > 100 µM
- GI50 (HOP-92 NSCLC): 12.9 µM
- TGI (HOP-92 NSCLC): 44.3 µM
